Values of other authors as cited in US5962457A, “2,3 Disubstituted- (5,6)-heteroarylfused-pyrimidine-4-ones” (Pfizer Inc., priority 1997, dated 1999).

What was measured:
[1] = rat global ischemia models; LaPeillet et al.
[2] = focal and global ischemia models; Sheardown et al., Buchan et al., LePeillet et al.

| Structure (SMILES) | neuroprotection in global ischemia [1] | prevention of global and focal ischemic damage [2] |
| --- | --- | --- |
| CC1=NN=C(c2ccc(N)cc2)c2cc3c(cc2C1)OCO3 [GKYI 52466] | effective neuroprotective agent |  |
| NS(=O)(=O)c1cccc2c1c([N+](=O)[O-])cc1[nH]c(=O)c(=O)[nH]c12 [NBQX, 2,3-dihydroxy-6-nitro-7-sulfamoylbenzo[f-]quinoxaline] |  | effective in preventing global and focal ischemic damage |
